Source: US20230158151A1 (NURIX THERAPEUTICS, INC., priority 2021, published 2023)

Legend:
[1] = target: T1, ITK (Homo sapiens, UniProt Q08881); assay: ITK Degradation HiBiT Assay; format: cell-based; conditions: C-terminal HiBiT-tagged Molt4 cells, 4 hrs incubation; for Dmax: MOLT-4, read-out: HiBiT DMax (%)
T1 construct: Compounds provided herein were assayed in vitro with ITK HiBit cell lines; endogenous in cells; host or cells: Molt4 (ATCC CRL-1552 [sic]), monoclonal clone 1C10
T1 sequence (Q08881 1-620): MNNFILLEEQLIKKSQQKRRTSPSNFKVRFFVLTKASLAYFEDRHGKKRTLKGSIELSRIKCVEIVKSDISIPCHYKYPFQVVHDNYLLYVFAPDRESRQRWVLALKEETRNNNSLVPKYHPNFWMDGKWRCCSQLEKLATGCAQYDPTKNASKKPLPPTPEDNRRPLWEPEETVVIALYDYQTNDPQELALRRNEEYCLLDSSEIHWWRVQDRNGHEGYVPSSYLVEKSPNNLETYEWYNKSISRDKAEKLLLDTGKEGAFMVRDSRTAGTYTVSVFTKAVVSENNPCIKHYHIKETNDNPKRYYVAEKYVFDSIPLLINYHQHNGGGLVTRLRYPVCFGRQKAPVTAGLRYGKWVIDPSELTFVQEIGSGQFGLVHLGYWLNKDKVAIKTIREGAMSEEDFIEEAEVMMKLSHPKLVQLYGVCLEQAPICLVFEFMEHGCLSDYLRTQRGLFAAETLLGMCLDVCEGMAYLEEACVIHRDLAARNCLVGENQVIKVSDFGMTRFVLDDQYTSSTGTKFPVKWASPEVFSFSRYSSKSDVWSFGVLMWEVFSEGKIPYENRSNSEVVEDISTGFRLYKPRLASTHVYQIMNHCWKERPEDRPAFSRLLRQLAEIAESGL

[2] = Mouse PK Analysis (plasma LC/MS/MS, noncompartmental PK parameters); format: in vivo; set-up: AUC(0-t): concentration or dose not given beside the values; conditions: mouse; mice, oral administration, plasma
Protocol: Compounds 30 and 29 were administered to mice orally. After 6 hours or 24 hours, splenocytes cells were harvested. ITK was evaluated by Western blotting. Plasma concentrations were determined by LC/MS/MS. Plasma samples were protein precipitated by addition of 100 μl of acetonitrile containing 50 ng/ml of internal standard. The resulting mixture was vortexed and centrifuged at 4000 RPM for 5 minutes. An aliquot of the resultant supernatant (75 μl) was added to 75 μl of 0.1% formic acid in water to constitute the final sample for injection. Samples were injected on a Shimadzu Exion LC Binary Gradient AD Pump HLPC system connected to a Sciex QTRAP 6500+ mass spectrometer. Five μl of sample was injected onto a Waters Acquity UPLC BEH C18 column 130A (2.1×30 mm, […]) at 40° C. utilizing a flow rate of 700 μl/minute. Mobile Phase A was 0.1% formic acid in water and mobile phase B was 0.1% formic acid in acetonitrile. A linear gradient of 15-95% B over 1.0 minute was used. The mass spectrometer was operated in positive ion electrospray mode with multiple reaction monitoring for maximum sensitivity. Sciex Analyst software (version 1.6.3) was used for LC/MS/MS instrument control and acquisition. Compound concentration was determined against a standard curve of internal standard versus compound peak area ratio. Noncompartmental PK parameters were determined using Phoenix 32 software (version 8.2.0.4383) from Certara. Plasma concentrations from the LC/MS/MS analyses, dose, route of administration, and desired units were utilized for PK parameter calculations. […] FIG. 3C provides the concentration over time of compound 30 following in vivo oral administration in the 6 hour and 24 hour assays.
Cmax, Tmax and AUClast were all calculated using a WinNonLin Phoenix 64 v 8.2.0.4383. Using non-compartmental analysis, Tmax, Cmax and AUClast were determined as follows:
Tmax—Time of maximum observed concentration. Cmax—Maximum observed concentration, occurring at time Tmax, as defined above. AUClast—Area under the curve from the time of dosing to the time of the last measurable (positive) concentration (Tlast).

Compound	DC50 [1]	Dmax [1]	AUC(0-t) [2]	Cmax [2]	Tmax [2]
CC1(C)CCc2c(-c3cc4ccc(C(=O)N5CCC(CN6CCN(c7ccc(C8CCC(=O)NC8=O)cc7)CC6)CC5)cc4[nH]3)n[nH]c2C1 (stereo not drawn) [Compound 37, 3-(4-(4-((1-(2-(6,6-dimethyl-4,5,6,7-tetrahydro-1H-indazol-3-yl)-1H-indole-6-carbonyl)piperidin-4-yl)methyl)piperazin-1-yl)phenyl)piperidine-2,6-dione]	2.6 nM	79%	72 µM·h	5.4 µM	2 h
CC1(C)CCc2c(-c3cc4ccc(C(=O)N5CCN(CC6CCN(c7ccc(C8CCC(=O)NC8=O)cc7)CC6)CC5)cc4[nH]3)n[nH]c2C1 (stereo not drawn) [Compound 38, 3-(4-(4-((4-(2-(6,6-dimethyl-4,5,6,7-tetrahydro-1H-indazol-3-yl)-1H-indole-6-carbonyl)piperazin-1-yl)methyl)piperidin-1-yl)phenyl)piperidine-2,6-dione]	1.5 nM	74%	150 µM·h	11 µM	3.3 h
CC1(C)CCc2c(-c3cc4ccc(C(=O)N5CCC(CN6CCC(c7ccc(C8CCC(=O)NC8=O)cc7)CC6)CC5)cc4[nH]3)n[nH]c2C1 (stereo not drawn) [Compound 39, 3-(4-(1-((1-(2-(6,6-dimethyl-4,5,6,7-tetrahydro-1H-indazol-3-yl)-1H-indole-6-carbonyl)piperidin-4-yl)methyl)piperidin-4-yl)phenyl)piperidine-2,6-dione]	0.09 nM	82%	3.9 µM·h	0.3 µM	6 h
